Source: patent publication EP2681209B1, “COMPOUNDS AND METHODS FOR THE TREATMENT OF PAIN AND OTHER DISORDERS” (Aquilus Pharmaceuticals, Inc, priority 2011, dated 2012)
Values belong to the molecule of their own block, whether it stands above or below them.

Legend:
[1] = In-vitro microsomal stability in human microsomes; type: in vitro ADME; conditions: 1 µM compound, human microsomes 0.3 mg/mL
Method: Human and mouse microsomal stability was determined for select compounds following the method of Houston (Houston, JB; Biochem. Pharmacol. 47, (1994),1469).
1 µM concentration of compound and seperate human and mouse microsomes (0.3 mg/mL, BD bioscience) were used in the in-vitro assay. To ensure proper energy supply for microsomal degradation of compound, an energy regenerating system comprised of 100 mM potassium phosphate, 2mM NADPH, 3mM MgCl2, pH = 7.4. and the microsomal protein is added to each sample and the resulting suspension is then incubated in duplicate for 60 min at 37° C. in a rotary shaker. A control is run for each test agent in duplicate omitting NADPH to detect NADPH-free degradation. At T=0 and T= 60 min., an aliquot is removed from each experimental and control reaction and then mixed with an equal volume of ice-cold Stop Solution (consisting of 0.3% acetic acid in acetonitrile containing haloperidol and diclofenac as internal standards). […] The samples are then centrifuged to remove precipitated protein, and the supernatants are then analyzed by LC-MS/MS to determine the percentage of compound remaining. […] After separation on a C18 reverse phase HPLC column (Agilent, Waters, or equivalent) using an acetonitrile-water gradient system, peaks were analyzed by mass spectrometry (MS) using ESI ionization in MRM mode.

[2] = biological target: Catalytic domain of MMP-9 (human recombinant) (Homo sapiens, UniProt P14780); test: biochemical; conditions: read-out: Average Percent Inhibition (MMP-9)
FVB male mice = test: Spinal nerve ligation (SNL) mouse model of neuropathic pain, intrathecal administration, von Frey tactile allodynia test; type: in vivo; conditions: for 50% paw withdrawal threshold, Mean, Day 0 Postoperative Baseline: group baseline after SNL injury, before first injection; for 50% paw withdrawal threshold, Mean, Day 0 Postoperative Baseline / 50% paw withdrawal threshold, Mean, Day(-2) Pre-operative Baseline: von Frey; for 50% paw withdrawal threshold, Mean, Day(-2) Pre-operative Baseline: group baseline prior to SNL injury and before any treatment; for 50% paw withdrawal threshold, Mean, Day 5 / 50% paw withdrawal threshold, Mean, Day 7 / 50% paw withdrawal threshold, Mean, Day 1: i.t. 10 µl/mouse daily injections day 1-6; for 50% paw withdrawal threshold, Mean, Day 1: testing 2hr after first i.t. injection
Description: To measure the neuropathic pain inhibiting affects of the MMP inhibitors of the present invention, the spinal nerve ligation (SNL) mouse model was run on a select number of compounds. This model which began with the work of Bennet and coworkers (Bennet, G.J. et al. Pain, 33, (1988), 87-107) and was optimized by Kim and Chung (Kim, S.H.; Chung, J.M. Pain, 50, (1992), 355-363) entails first, under magnification, the removal of one-third of the transverse process and then identifying and then dissecting free the L5 spinal nerve from the adjacent L4 spinal nerve in the mouse. The L5 spinal nerve is then tightly ligated using 6.0 silk suture. The nerve injury leads to hyperalgesia which manifests itself by enhanced responses to mechanical, heat and/or cooling stimuli. In this case, mechanical hyperalgesia is tested via Von Frey monofilaments in which filaments of varying thicknesses and bending force are individually applied to the plantar surface of the foot of the mouse. The threshold force necessary for paw withdrawal decreases dramatically after the nerve surgery. Potent pain inhibitors will reverse this affect resulting in greater force needing to be applied to cause the rodent paw to withdrawal.
Following preoperative baseline (Day -2) paw threshold measurement, FVB male mice were subjected to SNL injury (Day -1). The next day (Day 0) after SNL surgery, the animals were tested for post-operative baseline threshold measurements for mechanical allodynia; and the animals were then randomly assigned to one of 3 treatment groups (see Table 3). Over the course of the study, paw withdrawal threshold of these animals was measured in response to mechanical stimulation using the von Frey Monofilament Test.
To avoid systemic effects of the MMP inhibitors, the MMP inhibitors of the present invention were delivered into the cerebral spinal fluid (CSF) space around lumbosacral spinal cord via intrathecal (i.t.) administration, with the idea of targeting MMPs in the DRG, spinal cord, and spinal CSF. Intrathecal MMP inhibitor administration could then target not only spinal cord cells but also DRG cells. Each intrathecal (i.t.) injection was carried out according to the technique of Hylden and Wilcox (Hylden JL, Wilcox GL. Eur. J Pharmacol., 67, (1980), 313-6) 5.2 mg of each of the MMP inhibitors were first dissolved in 140 microliters of DMSO and then put into 1260 microliters of 0.5% hydroxypropyl cellulose (HPC) in water to make a fine suspension composed of compound in 10%DMSO-0.5% hydroxypropyl cellulose. 10 microliters of the mixture was injected into the intrathecal space of male FVB mice (weighing 22-25 grams each and obtained from the Jackson Laboratories, Bar Harbor, Me), by lumbar puncture in a volume of 10 µl/mouse using a Hamilton microsyringe via a 30 gauge needle inserted between lumbar vertebrae 5 and 6. In brief, each animal was held firmly by the pelvic girdle in one hand, while the needle was inserted into the tissue on the right side of the L5 or L6 spinous process. The needle was moved forward and slipped into the groove between the spinous process and transverse process and gently moved forward to the intervertebral space at ∼10° angle. As the needle was inserted (∼0.5 cm) within the vertebral column a tail flick was evident, and the solution was then injected. Table 3. Animal i.t. Treatment Groups & Compounds Tested
Tactile Allodynia Test. Mechanical allodynia was measured using the calibrated von Frey filaments (Semmes-Weinstein monofilaments; Stoelting, Wood Dale, IL, U.S.A.). The plantar surface of the left injured paw of each animal was tested as described by Chaplan et al. (Journal of Neuroscience Methods, 53, (1994), 55-63). […]

MMP-9 = test: Gelatin zymography of mouse spinal cord for MMP-9 rebound effect; type: in vivo, mice
Description: There were three groups in the study comprising six mice for each group (Naive, control and compound 10 groups).

MMP-2 = test: Gelatin zymography of mouse spinal cord for MMP-2 rebound effect; type: in vivo, mice
[3] = 0.5 and 2 hours after naloxone precipitated withdrawal and cessation of compound administration, versus control
[4] = after discontinuation of compound in naloxone precipitated withdrawal model

Catalytic domain of MMP-9 (human recombinant), sequence (P14780 107-444 limits assumed): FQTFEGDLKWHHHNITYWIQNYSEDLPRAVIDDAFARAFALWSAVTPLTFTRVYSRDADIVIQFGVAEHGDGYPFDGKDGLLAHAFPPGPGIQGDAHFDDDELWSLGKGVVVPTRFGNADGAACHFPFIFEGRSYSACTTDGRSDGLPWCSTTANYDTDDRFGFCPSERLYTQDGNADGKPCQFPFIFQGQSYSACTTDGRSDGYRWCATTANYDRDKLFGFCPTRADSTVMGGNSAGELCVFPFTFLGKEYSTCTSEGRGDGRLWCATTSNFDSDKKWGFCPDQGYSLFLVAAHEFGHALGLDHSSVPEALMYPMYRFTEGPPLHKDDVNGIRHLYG

- Mean Remaining Parent with NADPH (%) ([1]; 60 min at 37° C): 86%
- Mean Remaining Parent without NADPH (%) ([1]; control omitting NADPH, at T = 60 minutes): 89%
- inhibition at 1 µM [2]: 82%
Compound: Cc1ccc(C#Cc2ccc(S(=O)(=O)N[C@H](Cc3c[nH]c4ccccc34)C(=O)O)s2)cc1 [Compound 5, (R)-3-(1H-Indol-3-yl)-2-(5-p-tolylethynyl-thiophene-2-sulfonylamino)-propionic acid]
- 50% paw withdrawal threshold, Mean, Day 0 Postoperative Baseline (FVB male mice): 0.050 g
- 50% paw withdrawal threshold, Mean, Day(-2) Pre-operative Baseline (FVB male mice): 1.265 g
- 50% paw withdrawal threshold, Mean, Day 5 (FVB male mice): 0.079 g
- 50% paw withdrawal threshold, Mean, Day 7 (FVB male mice): 0.190 g
- 50% paw withdrawal threshold, Mean, Day 1 (FVB male mice): 0.098 g

Compound: [2H]C([2H])([2H])c1ccc(C#Cc2ccc(S(=O)(=O)N[C@H](Cc3c[nH]c4ccccc34)C(=O)O)s2)cc1 [Compound 10, (R)-3-(1H-Indol-3-yl)-2-[5-(4-trideuteromethyl-phenylethynyl)-thiophene-2-sulfonylamino]-propionic acid-(D3, 98%)]
- MMP-9 levels in spinal cord (MMP-9; [3]): stayed the same or were slightly lower than the control
- MMP-9 rebound effect due to discontinuation (MMP-9; [4]): No evidence of a MMP-2 and/or MMP-9 rebound effect
- MMP-2 levels in spinal cord (MMP-2; [3]): stayed the same or were slightly lower than the control
- MMP-2 rebound effect due to discontinuation (MMP-2; [4]): No evidence of a MMP-2 and/or MMP-9 rebound effect
- 50% paw withdrawal threshold, Mean, Day 0 Postoperative Baseline (FVB male mice): 0.077 g
- 50% paw withdrawal threshold, Mean, Day(-2) Pre-operative Baseline (FVB male mice): 1.268 g
- 50% paw withdrawal threshold, Mean, Day 5 (FVB male mice): 0.320 g
- 50% paw withdrawal threshold, Mean, Day 7 (FVB male mice): 1.024 g
- 50% paw withdrawal threshold, Mean, Day 1 (FVB male mice): 0.321 g
- reversal of allodynia (FVB male mice; i.t. administration, as compared to vehicle and compound #5): almost complete reversal of allodynia
